Measured values reported in patent US20210333285A1, “DETECTION OF PHOSPHOKINASE SIGNATURES” (The Regents of the University of California, priority 2018, published 2021).
Where two headings read alike, the source gives them in different places.

What was measured:
[1] = system: BRAF^V600E melanoma cell lines; experiment: Growth response to drug combinations with VEM (Bliss combination index); type: cell-based; conditions: A375 and Sk-Mel-28; VEM + 2nd drug
Description: (a) Summary of possible cell responses to the combination of two drugs. The heatmap on the left represents the experimental effects of combining increasing concentrations of drug A+B as changes in cancer cell growth. The middle graph is a conceptual representation of how differences in effects of drugs alone or combined can be interpreted as either synergistic, additive, or antagonistic (derived from^10). The heatmap on the right represents the calculated combination index from all experimental cell growth data points. We decided to analyze experimental profiles using the Bliss Independence model to calculate combination indices (CI) and avoid inaccuracies from dose-effect curve estimations (CI=log 2 (Eab/(Ea*Eb); synergy CI<0; additivity CI=0; antagonism CI>0) 10-12. (b) Maps of cell growth responses (left) and combination indices (right). We tested the dependency of BRAF^V600E melanoma cell lines for kinases found as differentially active by HT-KAM in patient tumors (FIG. 26a,b). We included everolimus or trametinib (bottom two rows) as experimental ‘positive’ controls and for side-by-side comparison of the effects of other kinase-targeting drugs we tested. Arrows located above and on the left of each cell growth heatmaps serve as indicators of GI50 concentrations for each drug alone.
(§1) To assess the growth/survival response of cell lines to single or combinatorial drug treatments in FIGS. 2-3 and FIGS. 20, 22, 28, 29, we used CellTiter-Glo cell viability assay (Promega; cat #G7571). Cell culture and luminescence readouts were performed in 96- and 384-well plates after 3-day treatments. Drug treatment conditions are described in the text. The effects of drug combinations on cell growth were assessed by calculating drug interaction (D.I.; two-way ANOVA using Prism or Sigma Plot software) and combination index (C.I.; following either the Loewe Additivity^6-9 or Bliss Independence models^[…]). […] We systematically tested the effects of drugs in both regular and low serum culture conditions (i.e. 5% and 0.25% FBS media). To quantitate cell death in FIG. 3 and FIGS. 28-29, FACS analysis of nuclear degradation was performed as previously described^13. Colony formation assay in FIG. 3 and FIG. 30 were performed as previously described^5.

Sk-Mel-28 = experiment: 3-day CellTiter-Glo cell viability assay; type: cell-based; conditions: read-out: GI50, drug alone
Method: as §1

A375 = experiment: 3-day CellTiter-Glo cell viability assay; type: cell-based; conditions: read-out: GI50, drug alone
Method: as §1

AKT1 = molecular target: T1, AKT1 (Homo sapiens, UniProt P31749); experiment: HT-KAM ATP-consumption kinase activity assay with inhibitors; type: biochemical; conditions: control assays, data not shown
T1 construct: purchased SignalChem A16-10G
T1 sequence (P31749 whole entry): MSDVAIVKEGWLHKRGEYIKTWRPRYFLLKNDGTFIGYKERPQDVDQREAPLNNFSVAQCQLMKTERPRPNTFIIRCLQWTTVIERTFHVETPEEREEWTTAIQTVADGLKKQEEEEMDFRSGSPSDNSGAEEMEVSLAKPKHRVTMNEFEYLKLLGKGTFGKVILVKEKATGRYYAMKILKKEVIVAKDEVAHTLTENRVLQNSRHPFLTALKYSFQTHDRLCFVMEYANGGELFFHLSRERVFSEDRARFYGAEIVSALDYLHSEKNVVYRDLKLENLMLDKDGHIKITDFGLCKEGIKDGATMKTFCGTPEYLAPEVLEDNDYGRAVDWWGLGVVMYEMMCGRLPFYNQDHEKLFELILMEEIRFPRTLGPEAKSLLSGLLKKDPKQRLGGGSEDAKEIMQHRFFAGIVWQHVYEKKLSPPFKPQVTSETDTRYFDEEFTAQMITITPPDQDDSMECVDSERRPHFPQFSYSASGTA

M032R6.X1. CL = experiment: 3-week colony formation assay; type: cell-based; conditions: PDX-derived cell line with high RPS6KB1
Description: (§2) (a-b) Phospho-RPS6KB profiles of two patient-derived xenografts (PDXs) tumor tissues (a) and related cell lines (b). PDXs were previously^4,5 established from patients refractory to BRAF^V600E-therapy. A limited number of primary cell lines were derived from these PDX's. (c) Sensitivity of primary melanoma cell lines to RPS6KB-inhibitor PF-4708671 in 3-week colony formation assays.
as §1

M061R.X1. CL = experiment: 3-week colony formation assay; type: cell-based; conditions: PDX-derived cell line without high RPS6KB1
Description: as §2, §1

LCK = LCK (Homo sapiens, UniProt P06239); conditions: literature reports; cited from earlier work
Chain of LCK (P06239 whole entry, species assumed): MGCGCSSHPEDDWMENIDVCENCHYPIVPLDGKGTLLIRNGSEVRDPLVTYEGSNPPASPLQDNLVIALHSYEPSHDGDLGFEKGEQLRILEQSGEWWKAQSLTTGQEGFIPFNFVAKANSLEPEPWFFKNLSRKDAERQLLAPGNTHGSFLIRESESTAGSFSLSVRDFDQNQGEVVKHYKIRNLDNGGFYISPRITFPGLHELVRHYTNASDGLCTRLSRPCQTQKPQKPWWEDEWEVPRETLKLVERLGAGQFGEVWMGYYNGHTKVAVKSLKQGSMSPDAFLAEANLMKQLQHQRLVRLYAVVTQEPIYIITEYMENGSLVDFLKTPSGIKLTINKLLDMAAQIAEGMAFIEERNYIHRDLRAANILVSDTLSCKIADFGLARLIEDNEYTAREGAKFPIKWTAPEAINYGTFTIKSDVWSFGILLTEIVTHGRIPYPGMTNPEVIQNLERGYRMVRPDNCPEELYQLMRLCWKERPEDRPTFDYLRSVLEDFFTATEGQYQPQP

WiDr cells = experiment: 3-day cell viability assay; type: cell-based; conditions: Homo sapiens, 72 h, read-out: GI50 concentration
Description: FIG. 20. Response of BRAF^V600E CRC cells to targeted therapy combinations. To validate the kinase activity signatures of VEM-resistant WiDr cells found by HT-KAM screen, and as a mean to assess the role of these kinases (AKT1, PDPK1, PRKCA, SGK1) as mediators of the response to VEM and their potential value as druggable vulnerabilities in our model, we used 3-day cell viability assays to monitor the response of cells to drug combinations.
as §1

A375 myrAKT1 cells = experiment: 3-day cell viability assay, myrAKT1-expressing cells; type: cell-based; conditions: myrAKT1-expressing vs control counterpart; p=2.77E-06
Description: FIG. 29. A375 expressing a constitutively active AKT1 oncogenic kinase remain sensitive to RPS6KB- or PIM-targeting. We exogenously expressed myrAKT1 (i.e. a constitutively active oncogenic AKT1) in A375 cells. We then tested the sensitivity of A375 myrAKT1 cells to drug combinations.
as §1

[2] = Homo sapiens, SK-MEL-28, 72 h, 0.25% FBS media
[3] = Homo sapiens, SK-MEL-28, 72 h, 5% FBS media
[4] = Homo sapiens, A-375, 72 h, 0.25% FBS media
[5] = Homo sapiens, A-375, 72 h, 5% FBS media

Structure (SMILES)	effect of combination with VEM on cell growth / combination index [1]	GI50 (Sk-Mel-28; 0.25% FBS media)	GI50 (Sk-Mel-28; 5% FBS media)	GI50 (A375; 0.25% FBS media)	GI50 (A375; 5% FBS media)	GI50 (Sk-Mel-28; [2])	GI50 (Sk-Mel-28; [3])	GI50 (A375; [4])	GI50 (A375; [5])	other results
O=C1Cc2c([nH]c3ccc(Br)cc23)-c2ncccc2N1 [1-Azakenpaullone]	antagonizing the effects of VEM treatment	10 µM	20 µM	2.5 µM	20 µM					
N[C@@H]1CCCN(c2c(/C=C3\SC(=O)NC3=O)cccc2-c2ccccc2)C1 [AZD1208]	strong growth inhibitory effects	25 µM	25 µM	12.5 µM	12.5 µM					
CC(C)CCN1c2nc(Nc3cc(F)c(O)c(F)c3)ncc2N(C)C(=O)C1C (stereo not shown) [BI-D1870]	additive effects only	12.5 µM	25 µM	> 50 µM	12.5 µM					
COc1ccc2c(c1)c(C1=C(c3c[nH]c4ccccc34)C(=O)NC1=O)cn2CCCN(C)C [Go6983]	limited additivity effects									
Cn1cc(-c2ccc(F)c(C(F)(F)F)c2)nc1C1CCN(c2ncnc3[nH]ncc23)CC1 [LY2584702]	strong growth inhibitory effects					100 µM	100 µM	> 200 µM	50 µM	
NC1(c2ccc(-c3nc4ccn5c(=O)[nH]nc5c4cc3-c3ccccc3)cc2)CCC1 [MK2206]						5 µM	2.5 µM	2.5 µM	10 µM	effect on AKT1 activity (AKT1): effectively decreased AKT1 activity
CCc1cncnc1N1CCN(Cc2nc3ccc(C(F)(F)F)cc3[nH]2)CC1 [PF-4708671]	strong growth inhibitory effects	16 µM	32 µM	16 µM	32 µM					sensitivity in colony formation (M032R6.X1. CL): sensitive; sensitivity in colony formation (M061R.X1. CL): not sensitive
CN(C)S(=O)(=O)c1ccc2c(c1)/C(=C/c1cc3c([nH]1)CCCC3)C(=O)N2 [SU6656]										IC50 (LCK): > 5 µM
CN1CCN(c2nc(C3=C(c4c[nH]c5ccccc45)C(=O)NC3=O)c3ccccc3n2)CC1 [Sotrastaurin, sotrastaurin]	limited additivity effects									
CCCS(=O)(=O)Nc1ccc(F)c(C(=O)c2c[nH]c3ncc(-c4ccc(Cl)cc4)cc23)c1F [VEM, vemurafenib]						0.31 µM	0.63 µM	0.02 µM	0.15 µM	GI50 (WiDr cells): 2 µM; increase in GI50 versus control A375 (A375 myrAKT1 cells): 65%
CO[C@H]1C[C@@H]2CC[C@@H](C)[C@@](O)(O2)C(=O)C(=O)N2CCCC[C@H]2C(=O)O[C@H]([C@H](C)C[C@@H]2CC[C@@H](OCCO)[C@H](OC)C2)CC(=O)[C@H](C)/C=C(\C)[C@@H](O)[C@@H](OC)C(=O)[C@H](C)C[C@H](C)/C=C/C=C/C=C/1C [everolimus]						10 µM	10 µM	10 µM	5 µM	
CC(=O)Nc1cccc(-n2c(=O)n(C3CC3)c(=O)c3c(Nc4ccc(I)cc4F)n(C)c(=O)c(C)c32)c1 [trametinib]						0.01 µM	0.01 µM	0.0025 µM	0.005 µM	
